Here are results for 1 compound from ChEMBL document CHEMBL2177100, “Structural optimization and structure-activity relationships of N2-(4-(4-Methylpiperazin-1-yl)phenyl)-N8-phenyl-9H-purine-2,8-diamine derivatives, a new class of reversible kinase inhibitors targeting both EGFR-activating and resistance mutations” (J Med Chem, 2012).

pIC50: −log10 of the molar value. Calls of active or inactive are those of the source. No cut-off for these calls is given here.

Data set [1] in a line: Cmax in Sprague-Dawley rat at 20 mg/kg, po. Set-up: dose 20 mg/kg, route oral. It counts as ADME, organism-based. Particulars: in vivo.
Data set [2] addresses Mitogen-activated protein kinase 14 (Homo sapiens, UniProt Q16539). Nature of the data set: Inhibition of human recombinant p38alpha by radiometric kinase assay.
Data set [3] has as its target RAC-alpha serine/threonine-protein kinase (Homo sapiens, UniProt P31749). Nature of the data set: Inhibition of human recombinant PKBalpha by radiometric kinase assay.
For data set [4], the target named is Glycogen synthase kinase-3 beta (Homo sapiens, UniProt P49841). Nature of the data set: Inhibition of human recombinant GSK3beta by radiometric kinase assay.
Data set [5] concerns HCC827. Nature of the data set: Antitumor activity against human HCC827 cells xenografted in BALB/c mouse assessed as complete tumor regression at 5 mg/kg, po qd measured within 15 days compound treatment. The format is functional, organism-based. Details: dose 5 mg/kg. In general terms: Xenograft models place foreign cells or tissue in a host animal.
Another data set concerns Rattus norvegicus. Nature of the data set: Volume of distribution at steady state in Sprague-Dawley rat at 20 mg/kg, po. It counts as ADME, organism-based. Details: dose 20 mg/kg, route oral. The conditions noted are these: in vivo.
Data set [6] is described as follows: Clearance in Sprague-Dawley rat at 20 mg/kg, po. The format is ADME, organism-based. Set-up: dose 20 mg/kg, route oral. The conditions noted are these: in vivo.
The target in data set [7] is Protein kinase C theta type (Homo sapiens, UniProt Q04759). Briefly: Inhibition of human recombinant PKCtheta by radiometric kinase assay.
Protein kinase C theta type, sequence (Q04759 whole entry): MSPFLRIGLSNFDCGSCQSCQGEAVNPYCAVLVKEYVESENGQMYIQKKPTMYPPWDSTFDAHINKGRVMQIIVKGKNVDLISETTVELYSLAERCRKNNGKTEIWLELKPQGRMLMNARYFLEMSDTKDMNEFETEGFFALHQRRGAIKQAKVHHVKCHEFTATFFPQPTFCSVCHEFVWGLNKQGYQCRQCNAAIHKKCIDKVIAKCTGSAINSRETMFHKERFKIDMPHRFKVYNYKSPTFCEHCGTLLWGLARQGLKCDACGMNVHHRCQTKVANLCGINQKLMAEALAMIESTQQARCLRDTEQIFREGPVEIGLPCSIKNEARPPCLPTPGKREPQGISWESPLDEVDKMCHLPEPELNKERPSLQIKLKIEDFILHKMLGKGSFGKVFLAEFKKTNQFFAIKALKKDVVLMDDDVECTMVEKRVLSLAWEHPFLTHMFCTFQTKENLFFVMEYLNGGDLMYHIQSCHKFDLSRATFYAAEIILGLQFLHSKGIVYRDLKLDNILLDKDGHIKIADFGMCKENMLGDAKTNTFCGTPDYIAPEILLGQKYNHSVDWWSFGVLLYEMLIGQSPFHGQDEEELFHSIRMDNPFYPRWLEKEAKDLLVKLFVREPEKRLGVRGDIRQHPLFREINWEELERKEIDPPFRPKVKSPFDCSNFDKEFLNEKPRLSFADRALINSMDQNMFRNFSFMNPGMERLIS
For data set [8], the target named is MAP kinase-activated protein kinase 5 (Homo sapiens, UniProt Q8IW41). Nature of the data set: Inhibition of human recombinant MK5 by radiometric kinase assay.
MAP kinase-activated protein kinase 5, sequence (Q8IW41 whole entry): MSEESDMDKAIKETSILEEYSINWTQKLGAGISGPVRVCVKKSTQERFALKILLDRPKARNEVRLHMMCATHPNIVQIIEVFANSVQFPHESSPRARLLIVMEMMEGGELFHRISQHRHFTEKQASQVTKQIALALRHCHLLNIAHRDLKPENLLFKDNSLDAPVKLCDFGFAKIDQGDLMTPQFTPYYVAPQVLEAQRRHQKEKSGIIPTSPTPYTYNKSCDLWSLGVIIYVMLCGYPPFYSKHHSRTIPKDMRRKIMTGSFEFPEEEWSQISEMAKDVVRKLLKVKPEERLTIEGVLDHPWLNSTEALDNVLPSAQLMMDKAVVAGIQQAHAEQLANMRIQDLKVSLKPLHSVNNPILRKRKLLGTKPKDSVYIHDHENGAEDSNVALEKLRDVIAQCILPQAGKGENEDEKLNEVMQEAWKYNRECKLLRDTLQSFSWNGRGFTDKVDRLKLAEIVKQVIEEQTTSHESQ
For data set [9], the target named is Rho-associated protein kinase 2 (Homo sapiens, UniProt O75116). Briefly: Inhibition of human recombinant ROCK2 by radiometric kinase assay.
Rho-associated protein kinase 2, sequence (O75116 whole entry): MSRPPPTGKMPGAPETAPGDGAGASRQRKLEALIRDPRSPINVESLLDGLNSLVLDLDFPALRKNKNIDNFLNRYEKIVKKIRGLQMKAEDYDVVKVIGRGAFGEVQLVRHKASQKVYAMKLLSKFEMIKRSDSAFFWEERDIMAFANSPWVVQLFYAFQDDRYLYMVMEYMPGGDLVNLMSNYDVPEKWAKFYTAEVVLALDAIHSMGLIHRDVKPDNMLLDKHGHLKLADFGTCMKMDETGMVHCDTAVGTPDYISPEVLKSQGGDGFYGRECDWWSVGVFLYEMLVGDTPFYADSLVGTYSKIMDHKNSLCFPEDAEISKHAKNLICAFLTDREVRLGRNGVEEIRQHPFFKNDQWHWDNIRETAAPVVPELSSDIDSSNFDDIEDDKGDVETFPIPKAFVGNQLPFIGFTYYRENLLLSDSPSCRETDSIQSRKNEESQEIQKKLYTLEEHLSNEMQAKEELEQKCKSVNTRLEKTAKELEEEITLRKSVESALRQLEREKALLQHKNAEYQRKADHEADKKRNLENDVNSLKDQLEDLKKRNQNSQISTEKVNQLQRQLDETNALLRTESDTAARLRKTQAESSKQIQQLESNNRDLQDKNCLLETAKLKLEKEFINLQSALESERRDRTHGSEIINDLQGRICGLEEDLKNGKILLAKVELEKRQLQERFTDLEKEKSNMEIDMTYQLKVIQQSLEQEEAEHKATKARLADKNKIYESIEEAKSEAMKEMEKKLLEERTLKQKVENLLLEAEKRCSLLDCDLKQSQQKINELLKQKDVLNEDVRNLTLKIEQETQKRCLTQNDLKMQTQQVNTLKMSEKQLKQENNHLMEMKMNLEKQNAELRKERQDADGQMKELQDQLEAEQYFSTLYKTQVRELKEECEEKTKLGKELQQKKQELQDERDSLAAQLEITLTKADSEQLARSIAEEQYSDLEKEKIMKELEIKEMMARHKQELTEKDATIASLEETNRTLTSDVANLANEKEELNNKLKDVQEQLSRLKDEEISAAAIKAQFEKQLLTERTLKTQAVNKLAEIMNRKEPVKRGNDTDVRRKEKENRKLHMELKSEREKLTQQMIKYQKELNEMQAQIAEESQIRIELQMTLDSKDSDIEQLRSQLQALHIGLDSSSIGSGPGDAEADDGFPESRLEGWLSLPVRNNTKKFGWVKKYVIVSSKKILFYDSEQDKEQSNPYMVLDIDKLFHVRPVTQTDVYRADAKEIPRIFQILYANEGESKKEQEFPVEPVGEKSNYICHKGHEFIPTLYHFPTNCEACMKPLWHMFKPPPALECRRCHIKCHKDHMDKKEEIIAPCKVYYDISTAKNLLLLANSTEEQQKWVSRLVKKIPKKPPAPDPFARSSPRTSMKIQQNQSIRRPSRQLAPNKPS
Data set [10] has as its system HCC827. Briefly: Antitumor activity against human HCC827 cells xenografted in BALB/c mouse assessed as reduction in Ki67 expression at 1 mg/kg/day, po for 3 days by immunohistochemistry. The format is functional, organism-based.
Data set [11] can be described thus: Cytotoxicity against human HCC827 cells incubated for 72 hrs by MTT assay. The format is functional, cell-based. The conditions noted are these: HCC827, 72 h. Background: Formazan colour is commonly taken as a measure of viable cells.
The target of data set [12] is Tyrosine-protein kinase JAK2 (Homo sapiens, UniProt O60674). Nature of the data set: Inhibition of human recombinant JAK2 by radiometric kinase assay.
Tyrosine-protein kinase JAK2, sequence (O60674 whole entry): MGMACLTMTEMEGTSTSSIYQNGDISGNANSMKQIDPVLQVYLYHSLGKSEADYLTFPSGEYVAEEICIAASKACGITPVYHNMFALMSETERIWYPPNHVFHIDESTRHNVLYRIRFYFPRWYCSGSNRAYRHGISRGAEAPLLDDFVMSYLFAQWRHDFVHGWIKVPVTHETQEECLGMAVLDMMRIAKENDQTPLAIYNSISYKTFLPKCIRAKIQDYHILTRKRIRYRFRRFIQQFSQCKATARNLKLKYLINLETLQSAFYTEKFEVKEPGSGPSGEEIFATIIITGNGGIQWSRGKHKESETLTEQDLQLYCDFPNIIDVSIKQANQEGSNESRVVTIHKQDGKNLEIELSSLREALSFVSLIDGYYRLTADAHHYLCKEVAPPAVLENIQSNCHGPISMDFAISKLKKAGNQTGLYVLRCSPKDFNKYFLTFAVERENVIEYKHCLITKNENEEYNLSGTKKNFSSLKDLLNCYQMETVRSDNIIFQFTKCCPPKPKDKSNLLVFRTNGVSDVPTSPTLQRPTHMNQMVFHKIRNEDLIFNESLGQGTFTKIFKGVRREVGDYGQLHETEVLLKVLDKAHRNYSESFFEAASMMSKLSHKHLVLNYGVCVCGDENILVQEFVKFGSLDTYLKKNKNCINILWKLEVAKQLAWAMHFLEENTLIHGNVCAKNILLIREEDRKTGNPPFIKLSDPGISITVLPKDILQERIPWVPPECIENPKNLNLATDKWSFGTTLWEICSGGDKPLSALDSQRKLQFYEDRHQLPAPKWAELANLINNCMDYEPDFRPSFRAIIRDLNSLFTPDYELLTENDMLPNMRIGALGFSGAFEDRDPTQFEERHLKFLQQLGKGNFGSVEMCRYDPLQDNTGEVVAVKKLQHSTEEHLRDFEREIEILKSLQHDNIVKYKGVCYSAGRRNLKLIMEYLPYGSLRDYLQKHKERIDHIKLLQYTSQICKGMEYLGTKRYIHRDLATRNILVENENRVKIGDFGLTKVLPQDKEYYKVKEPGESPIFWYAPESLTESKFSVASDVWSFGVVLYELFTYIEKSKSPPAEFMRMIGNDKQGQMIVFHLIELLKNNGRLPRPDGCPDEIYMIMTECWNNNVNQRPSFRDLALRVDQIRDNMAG
For data set [13], the target named is MAP kinase-activated protein kinase 2 (Homo sapiens, UniProt P49137). Briefly: Inhibition of human recombinant MK2 by radiometric kinase assay.
The test system of the next data set is HCT-116. Briefly: Cytotoxicity against human HCT116 cells incubated for 72 hrs by MTT assay. The conditions noted are these: HCT-116, 72 h. The format is functional, cell-based.
The target in data set [14] is Vascular endothelial growth factor receptor 2 (Homo sapiens, UniProt P35968). Nature of the data set: Inhibition of human recombinant VEGFR2 by radiometric kinase assay.
Vascular endothelial growth factor receptor 2, sequence (P35968 whole entry): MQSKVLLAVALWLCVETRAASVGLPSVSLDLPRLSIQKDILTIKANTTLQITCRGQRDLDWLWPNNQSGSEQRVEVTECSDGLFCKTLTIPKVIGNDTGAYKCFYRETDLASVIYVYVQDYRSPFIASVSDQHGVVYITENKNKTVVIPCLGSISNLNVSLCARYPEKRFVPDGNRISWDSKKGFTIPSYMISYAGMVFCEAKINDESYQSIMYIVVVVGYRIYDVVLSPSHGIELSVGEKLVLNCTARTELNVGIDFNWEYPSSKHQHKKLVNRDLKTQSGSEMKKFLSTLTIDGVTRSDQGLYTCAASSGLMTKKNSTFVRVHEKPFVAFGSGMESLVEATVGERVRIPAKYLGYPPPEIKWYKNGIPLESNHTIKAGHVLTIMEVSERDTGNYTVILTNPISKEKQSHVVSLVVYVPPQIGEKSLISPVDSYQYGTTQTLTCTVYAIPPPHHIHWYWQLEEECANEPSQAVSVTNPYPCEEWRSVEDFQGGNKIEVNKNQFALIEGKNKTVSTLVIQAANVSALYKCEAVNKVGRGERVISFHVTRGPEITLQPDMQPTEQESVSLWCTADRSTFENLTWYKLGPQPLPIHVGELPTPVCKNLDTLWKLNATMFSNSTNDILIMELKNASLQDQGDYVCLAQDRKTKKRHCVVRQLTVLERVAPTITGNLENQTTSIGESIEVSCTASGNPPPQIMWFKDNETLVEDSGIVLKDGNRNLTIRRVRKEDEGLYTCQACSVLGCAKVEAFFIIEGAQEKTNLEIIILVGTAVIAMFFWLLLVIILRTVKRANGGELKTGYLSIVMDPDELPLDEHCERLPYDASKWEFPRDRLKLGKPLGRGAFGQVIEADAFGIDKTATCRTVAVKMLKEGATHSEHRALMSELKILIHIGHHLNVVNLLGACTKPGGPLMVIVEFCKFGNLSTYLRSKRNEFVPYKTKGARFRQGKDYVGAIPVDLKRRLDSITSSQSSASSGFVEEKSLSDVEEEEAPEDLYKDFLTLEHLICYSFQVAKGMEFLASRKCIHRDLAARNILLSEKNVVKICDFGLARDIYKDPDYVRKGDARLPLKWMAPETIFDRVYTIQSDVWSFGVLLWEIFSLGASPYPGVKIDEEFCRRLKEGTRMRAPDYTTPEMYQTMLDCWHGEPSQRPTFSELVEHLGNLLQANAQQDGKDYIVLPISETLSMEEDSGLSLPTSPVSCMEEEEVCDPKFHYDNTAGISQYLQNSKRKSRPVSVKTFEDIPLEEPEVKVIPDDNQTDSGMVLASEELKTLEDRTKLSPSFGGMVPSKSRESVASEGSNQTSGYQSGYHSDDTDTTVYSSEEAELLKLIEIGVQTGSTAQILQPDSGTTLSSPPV
For data set [15], the target named is Tyrosine-protein kinase JAK1 (Homo sapiens, UniProt P23458). Briefly: Inhibition of human recombinant JAK1 by radiometric kinase assay.
For data set [16], the target named is MAP kinase-interacting serine/threonine-protein kinase 1 (Homo sapiens, UniProt Q9BUB5). Briefly: Inhibition of human recombinant MNK1 by radiometric kinase assay.
Data set [17] in a line: Inhibition of human recombinant S6K by radiometric kinase assay.
Another data set relates to NCI-H1975. Briefly: Antitumor activity against human NCI-H1975 cells xenografted in BALB/c mouse assessed as inhibition of tumor growth at 50 mg/kg, po qd. It counts as functional. Particulars: read-out: TGI.
Another data set relates to NCI-H292. Briefly: Cytotoxicity against human NCI-H292 cells incubated for 72 hrs by MTT assay. It counts as functional, cell-based. The conditions noted are these: NCI-H292, 72 h.

With `CN1CCN(c2ccc(Nc3ncc4nc(Nc5ccccc5)n(C5CCCC5)c4n3)cc2)CC1`, the Cmax (as a rule, the maximum level reached in the sampled fluid or tissue) in data set [1] was 230 ng/mL. Moreover, the pIC50 – broadly, the IC50 on a negative log10 scale, so that one unit is a factor of ten – in data set [2] is 6.64; in data set [3], less than 5.00; in data set [4], less than 5.00; in [7], 5.44; in data set [8], less than 5.00; in data set [9], less than 5.00. Besides, the pIC50 was greater than 11.00 in data set [11]; 5.92 in data set [12]; less than 5.00 in data set [13]; 5.52 in the data set on HCT-116; 7.70 in [14]; 5.48 in [15]. In addition, the pIC50 is 5.17 in data set [16], 5.03 in [17] and 7.35 in the data set on NCI-H292. In addition, the outcome with HCC827 [5] and in the data set with HCC827 [10] was Active. In the data set with Rattus norvegicus, this compound displayed a Vdss of 63.35 L/kg. In addition, the CL/F (usually clearance divided by bioavailability, as obtained after extravascular dosing) in data set [6] is 162 mL/min/kg. Besides, the inhibition in vivo at 50 mg/kg in the data set with NCI-H1975 is 62%.
